# ChEMBL document CHEMBL5050843, “Amide substituted thiazoles as protein secretion inhibitors” (2019)
# Columns and labels:
# [1] = Inhibition of constitutively active VCAMss-Gluc secretion in human Flp-In-T-REx-293 cells measured by Gaussia luciferase reporter gene method; format: functional, cell-based
# [2] = Inhibition of VCAMss-Gluc secretion in doxycyclin-induced human Flp-In-T-REx-293 cells measured by Gaussia luciferase reporter gene method; format: functional, cell-based
# [3] = Inhibition of PD1ss-Gluc secretion in doxycyclin-induced human Flp-In-T-REx-293 cells measured by Gaussia luciferase reporter gene method; format: functional, cell-based
# [4] = Inhibition of constitutively active PR1ss-Gluc secretion in human Flp-In-T-REx-293 cells measured by Gaussia luciferase reporter gene method; format: functional, cell-based
# [5] = Inhibition of PR1ss-Gluc secretion in doxycyclin-induced human Flp-In-T-REx-293 cells measured by Gaussia luciferase reporter gene method; format: functional, cell-based
# [6] = Inhibition of TNF-alpha-FL-Gluc secretion in doxycyclin-induced human Flp-In-T-REx-293 cells measured by Gaussia luciferase reporter gene method; format: functional, cell-based
# [7] = Inhibition of VCAMss-Gluc secretion in doxycyclin-induced human HEK293 cells measured by Gaussia luciferase reporter gene method; format: functional, cell-based
# [8] = Inhibition of constitutively active VCAMss-Gluc secretion in human Flp-In-T-REx-293 cells at 2.5 uM measured by Gaussia luciferase reporter gene method relative to control; format: functional
# [9] = Inhibition of TNF-alpha-FL-Gluc secretion in doxycyclin-induced human Flp-In-T-REx-293 cells at 2.5 uM measured by Gaussia luciferase reporter gene method relative to control; format: functional
# [10] = Inhibition of constitutively active VCAMss-Gluc secretion in human Flp-In-T-REx-293 cells at 2 uM measured by Gaussia luciferase reporter gene method relative to control; format: functional
# [11] = Inhibition of VCAM expression in human Flp-In-T-REx-293 cells measured by cellular VCAMss-Gluc assay; format: functional, cell-based
# [12] = Inhibition of VCAM expression in doxycyclin-induced human HEK293-T-REx cells measured by Gaussia luciferase reporter gene method; format: functional, cell-based
# [13] = Inhibition of HER3 expression in doxycyclin-induced human HEK293-T-REx cells measured by Gaussia luciferase reporter gene method; format: functional, cell-based
# [14] = Inhibition of TLR9 expression in doxycyclin-induced human HEK293-T-REx cells measured by Gaussia luciferase reporter gene method; format: functional, cell-based
# [15] = Inhibition of ROS1 expression in doxycyclin-induced human HEK293-T-REx cells measured by Gaussia luciferase reporter gene method; format: functional, cell-based
# [16] = Inhibition of PD1 expression in doxycyclin-induced human HEK293-T-REx cells measured by Gaussia luciferase reporter gene method; format: functional, cell-based
IC50 [1],IC50 [2],IC50 [3],IC50 [4],IC50 [5],SMILES,other results
1.25 µM,1.56 µM,7.82 µM,> 25 µM,> 25 µM,CC(C)(C)c1csc(NC(=O)Cc2csc3ccc(C#N)cc23)n1,
12.5 µM,19.1 µM,9.84 µM,> 25 µM,> 25 µM,Cc1cc(C(=O)Nc2nc(C(C)(C)C)cs2)cs1,IC50 [6]: > 25 µM; IC50 [7]: 3.3 µM
,,,,,COc1ccc2[nH]c(-c3ccc(C(=O)Nc4nc(C(C)(C)C)cs4)s3)cc2c1,inhibition at 2.5 µM [8]: 42%; inhibition at 2.5 µM [9]: 27%
2.42 µM,3.56 µM,20.4 µM,> 25 µM,> 25 µM,Cc1cccc2c(CC(=O)Nc3nc(C(C)(C)C)cs3)csc12,
0.506 µM,0.587 µM,4.25 µM,> 25 µM,> 25 µM,CC(C)(C)c1csc(NC(=O)Cc2cn(Cc3ccccc3)c3ccc(Cl)cc23)n1,IC50 [6]: 13.1 µM
,,,> 25 µM,,CC(C)(C)c1csc(NC(=O)c2ccc(Cl)cc2)n1,inhibition at 2.5 µM [8]: 66%; inhibition at 2.5 µM [9]: 0%
,,,,,CC(C)(C)c1csc(NC(=O)c2cc3c(s2)CCN(Cc2ccccc2)C3)n1,inhibition at 2.5 µM [8]: 33%; inhibition at 2.5 µM [9]: 22%
1.63 µM,2.24 µM,8.27 µM,> 25 µM,> 25 µM,Cc1ccc2scc(CC(=O)Nc3nc(C(C)(C)C)cs3)c2c1,
1 µM,0.744 µM,1.75 µM,> 25 µM,> 25 µM,CCCC(C)(C)c1csc(NC(=O)Cc2csc3ccc(Cl)cc23)n1,
4.11 µM,9.53 µM,3.87 µM,> 25 µM,> 25 µM,CC(C)(C)c1csc(NC(=O)c2cc3cc(-c4ccccc4Cl)ccc3s2)n1,
9.8 µM,,,> 25 µM,,CC(C)(C)c1csc(NC(=O)C2CCCCC2)n1,inhibition at 2 µM [10]: 30%
,,,,,COc1ccc2c(c1)cc(-c1ccc(C(=O)Nc3nc(C(C)(C)C)cs3)s1)n2C(=O)OC(C)(C)C,inhibition at 2.5 µM [8]: 56%; inhibition at 2.5 µM [9]: 0%
,,> 25 µM,,> 25 µM,CC(C)(C)c1csc(NC(=O)C(Cc2ccccc2)c2cn(Cc3ccccc3)c3ccc(Cl)cc23)n1 (configuration not stated),IC50 [6]: > 25 µM; IC50 [11]: > 25 µM
1.23 µM,0.826 µM,2.75 µM,> 25 µM,> 25 µM,CCC(C)(C)c1csc(NC(=O)Cc2csc3ccc(Cl)cc23)n1,
,,,,,CC(C)(C)c1csc(NC(=O)c2cc3c(s2)CCNC3)n1,inhibition at 2.5 µM [8]: 0%; inhibition at 2.5 µM [9]: 0%
,,,,,O=C(NC1NC(c2ccccc2)=NS1)N1CCOc2ccc(Cl)cc2C1 (configuration not stated),IC50 [7]: 22.1 µM
2.11 µM,1.14 µM,12.9 µM,> 25 µM,> 25 µM,CC(C)(C)c1csc(NC(=O)Cc2cn(Cc3ccc(F)cc3)c3ccccc23)n1,
,,,,,CC(C)(C)c1csc(NC(=O)c2cccs2)n1,inhibition at 2.5 µM [8]: 23%; inhibition at 2.5 µM [9]: 24%
10.1 µM,,,> 25 µM,,CC(C)(C)c1csc(NC(=O)N2CCOc3ccccc3C2)n1,inhibition at 2 µM [10]: 24%
> 25 µM,> 25 µM,> 25 µM,> 25 µM,> 25 µM,CC(C)(C)c1csc(NC(=O)c2cc3cc(C#N)ccc3s2)n1,
6.82 µM,5.9 µM,22.2 µM,> 25 µM,> 25 µM,Cc1ccc2c(CC(=O)Nc3nc(C(C)(C)C)cs3)csc2c1,
0.915 µM,1.11 µM,5.37 µM,> 25 µM,> 25 µM,CC(C)(C)c1csc(NC(=O)Cc2csc3ccc(Cl)cc23)n1,IC50 [6]: > 25 µM
,,0.968 µM,,> 25 µM,CCOC(C)(C)c1csc(NC(=O)Cc2cn(Cc3ccccc3Cl)c3ccc(Cl)cc23)n1,IC50 [6]: 24.4 µM; IC50 [11]: 1 µM; IC50 [12]: < 5 µM; IC50 [13]: < 5 µM; IC50 [14]: < 5 µM; IC50 [15]: < 5 µM; IC50 [16]: < 5 µM
